In publication PMC7934941, “Pharmacological chaperone action in humanized mouse models of MC4R-linked obesity” (JCI Insight, 2021):

Legend:
[1] = target: human melanocortin type 4 receptor (WT) (human) (UniProt P32245); settings: scale: pEC50
[2] = target: mouse melanocortin type 4 receptor (mouse) (UniProt P56450); settings: scale: pEC50
WT-hMC4R = target: T1, WT-hMC4R (Homo sapiens, UniProt P32245); assay: Melanocortin agonist cAMP production, WT receptor; type: cell-based; settings: % of Emax of untreated WT-hMC4R upon 1 μM NDP-α-MSH
T1 construct: expressed in transfected cells
Procedure: (§1) Data are the means ± SEM of 3 independent experiments.
(§2) Cells were kept on ice for 5 minutes before proceeding to cAMP measurement. […] For all assays, plates were then put at –80°C at least 90 minutes and thawed at RT on Heidolph Titramax 100 shaker at speed 1050 rpm. Cell lysates were then transferred to 384-well plates, lysed, and incubated with cAMP labeled with the dye d2 and anti-cAMP M antibody labeled with Cryptate (cAMP dynamic-2 kit, cisbio) according to the manufacturer’s protocol. Reading of the homogeneous time-resolved fluorescence signal was performed on an Artemis time-resolved fluorescence resonance energy transfer plate reader (Cosmo Bio USA).

R165W-hMC4R = target: T2, R165W-hMC4R (Homo sapiens, UniProt P32245, R165W); assay: Melanocortin agonist cAMP production, mutant receptor; type: cell-based
T2 construct: expressed in transfected cells
Procedure: as §1, §2

[3] = test system: hMC4R-KI, loxTB MC4R-null and nontransgenic mice; assay: Acute icv melanocortin agonist sensitivity, nocturnal food intake; type: in vivo, mouse; settings: homozygous loxTB MC4R-null mice
Procedure: (A–C) Immunohistochemical labeling of MC4R-positive neurons. […] Inset in A: higher power magnification of boxed areas containing GFP immune reactive neurons (brown cytoplasmic reaction product). Arrows in the center and right insets indicate GFP-positive neurons. Scale bars: 100 μm (A), 50 μm (A, inset), […] (B) and 10 μm (C). […] Food intake was measured 4 hours postadministration in dark phase and reported in percentage.
Food consumption was then assessed between ZT10 and ZT15 (3 hours after lights off). Food consumption was then normalized relative to the basal food consumption measured the day before for each mouse (% food intake vs. basal) and is expressed as means ± SEM.
The guide cannulas were secured with screws and cranioplastic cement (Dentsply Canada). To prevent clogging and to reduce the potential for brain infection, sterile obturators (PlasticsOne) were inserted into the guide cannulas. Appropriate cannula placement was functionally verified before experiments using the dipsogenic effects of angiotensin 2 injections (5 ng) as positive control, 5 days after surgery.
The day prior to agonist sensitivity assay, basal food consumption was measured individually between Zeitgeber time 10 (ZT10) (10 hours after lights on) and ZT15 (3 hours after lights off). […] Food consumption was then assessed between ZT10 and ZT15. […]

T1 sequence (P32245 whole entry): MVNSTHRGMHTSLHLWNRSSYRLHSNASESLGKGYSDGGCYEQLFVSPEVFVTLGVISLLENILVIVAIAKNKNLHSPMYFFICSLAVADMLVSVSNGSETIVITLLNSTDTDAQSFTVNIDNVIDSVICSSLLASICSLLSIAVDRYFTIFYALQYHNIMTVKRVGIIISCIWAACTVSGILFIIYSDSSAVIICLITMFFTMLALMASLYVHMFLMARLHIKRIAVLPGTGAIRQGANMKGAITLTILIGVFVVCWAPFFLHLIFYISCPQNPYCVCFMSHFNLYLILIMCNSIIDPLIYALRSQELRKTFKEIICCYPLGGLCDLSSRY
Chain of human melanocortin type 4 receptor (WT) (human) (P32245 whole entry): as above
Chain of mouse melanocortin type 4 receptor (mouse) (P56450 whole entry): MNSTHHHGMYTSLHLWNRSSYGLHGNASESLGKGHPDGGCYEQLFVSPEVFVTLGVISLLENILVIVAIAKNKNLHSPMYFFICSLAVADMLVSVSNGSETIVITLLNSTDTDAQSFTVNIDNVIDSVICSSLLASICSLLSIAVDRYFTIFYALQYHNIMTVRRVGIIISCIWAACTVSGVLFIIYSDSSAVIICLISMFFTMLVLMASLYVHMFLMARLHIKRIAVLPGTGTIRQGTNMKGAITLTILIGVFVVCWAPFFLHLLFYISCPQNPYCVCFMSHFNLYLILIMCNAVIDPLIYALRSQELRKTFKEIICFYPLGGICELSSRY
T2 sequence (P32245 whole entry R165W): as the sequence (P32245 whole entry) above, with R165W counted along it

Compound	potency (pEC50) of α-MSH to activate Gs, BRET-based biosensor directly monitoring Gs activation [1]	potency (pEC50) of α-MSH to activate Gs, BRET-based biosensor directly monitoring Gs activation [2]	Emax (WT-hMC4R; WT-hMC4R after 10 μM UM0130866 for 15 hours, washed)	Emax (WT-hMC4R; WT-hMC4R, untreated)	Emax (R165W-hMC4R)	food intake response (ZT10-ZT15) [3]
α–melanocyte-stimulating hormone (peptide)	7.48	8.64	–	–	–	–
CSCC[C@H](NC(=O)[C@H](CCCNC(=N)N)NC(=O)[C@H](Cc1ccc(O)cc1)NC(=O)[C@@H]1CCCN1C(=O)CNC(=O)[C@H](CCC(=O)O)NC(=O)[C@H](CC(=O)O)NC(=O)[C@H](CCCCN)NC(=O)[C@H](CCCCN)NC(=O)[C@H](CCC(=O)O)NC(=O)[C@H](C)N)C(=O)N[C@@H](CCC(=O)O)C(=O)N[C@@H](Cc1c[nH]cn1)C(=O)N[C@@H](Cc1ccccc1)C(=O)N[C@@H](CCCNC(=N)N)C(=O)N[C@@H](Cc1c[nH]c2ccccc12)C(=O)NCC(=O)N[C@@H](CO)C(=O)N1CCC[C@H]1C(=O)N1CCC[C@H]1C(=O)N[C@@H](CCCCN)C(=O)N[C@@H](CC(=O)O)C(=O)O [β-MSH]	–	–	92.7 ± 15.8%	112 ± 2.55%	115 ± 43.5%	absence of anorexic response
